Test results taken from ChEMBL document CHEMBL6087474, “Discovery of an Efficacious RET PROTAC Degrader with Enhanced Antiproliferative Activity against Resistant Cancer Cells Harboring RET Solvent-Front Mutations” (J Med Chem, 2025).
Active and inactive are the calls of the source. The rule behind the calls is not given here.

Tests used:
BaF3 [1] = assay: PROTAC activity at CRBN/KIF5B-RET (unknown origin) expressed in mouse BaF3 cells assessed as induction of RET degradation at 1000 nM measured after 6 hrs by Western blot analysis relative to control; format: cell-based
[2] = Potency index, ratio of selpercatinib IC50 to test compound IC50 for antiproliferative activity against mouse BaF3 cells stably expressing KIF5B-RET-G810C mutant incubated for 72 hrs by CCK-8 assay; format: functional
[3] = Potency index, ratio of selpercatinib IC50 to test compound IC50 for antiproliferative activity against mouse BaF3 cells stably expressing KIF5B-RET-G810R mutant incubated for 72 hrs by CCK-8 assay; format: functional
BaF3 [4] = assay: PROTAC activity at CRBN/KIF5B-RET (unknown origin) expressed in mouse BaF3 cells assessed as induction of RET degradation by measuring maximal efficacy measured after 6 hrs by Western blot analysis relative to control; format: cell-based; conditions: Homo sapiens
BaF3 [5] = assay: PROTAC activity at CRBN/KIF5B-RET-G810R mutant (unknown origin) expressed in mouse BaF3 cells assessed as induction of RET degradation at 300 nM measured after 6 hrs by Western blot analysis relative to control; format: cell-based; conditions: Homo sapiens
BaF3 [6] = assay: Antiproliferative activity against mouse BaF3 cells stably expressing KIF5B-RET-G810S mutant incubated for 72 hrs by CCK-8 assay; format: functional, cell-based; conditions: BaF3, 72 h
BaF3 [7] = assay: Antiproliferative activity against mouse BaF3 cells stably expressing CCDC6-RET incubated for 72 hrs by CCK-8 assay; format: functional, cell-based; conditions: BaF3, 72 h
BaF3 [8] = assay: Antiproliferative activity against mouse BaF3 cells stably expressing CCDC6-RET-V804M mutant incubated for 72 hrs by CCK-8 assay; format: functional, cell-based; conditions: BaF3, 72 h
[9] = Potency index, ratio of selpercatinib IC50 to test compound IC50 for antiproliferative activity against mouse BaF3 cells stably expressing KIF5B-RET-G810S mutant incubated for 72 hrs by CCK-8 assay; format: functional
[10] = Effect on RET protein level in mouse BaF3 cells stably expressing wildtype KIF5B-RET assessed as fold change at 11.1 nM measured after 6 hrs by Western blot analysis (reference value: 1); format: functional
[11] = Effect on RET protein level in mouse BaF3 cells stably expressing wildtype KIF5B-RET assessed as fold change at 300 nM measured after 6 hrs by Western blot analysis (reference value: 1); format: functional
[12] = Effect on Shc protein level in mouse BaF3 cells stably expressing wildtype KIF5B-RET assessed as fold change at 11.1 nM measured after 6 hrs by Western blot analysis; format: functional
[13] = Effect on RET protein level in mouse BaF3 cells stably expressing KIF5B-RET-G810C mutant assessed as fold change at 33.3 nM measured after 6 hrs by Western blot analysis (reference value: 1); format: functional
[14] = Effect on RET protein level in mouse BaF3 cells stably expressing KIF5B-RET-G810C mutant assessed as fold change at 100 nM measured after 6 hrs by Western blot analysis (reference value: 1); format: functional
[15] = Effect on Shc protein level in mouse BaF3 cells stably expressing KIF5B-RET-G810C mutant assessed as fold change at 33.3 nM measured after 6 hrs by Western blot analysis (reference value: 1); format: functional
[16] = Effect on RET protein level in mouse BaF3 cells stably expressing KIF5B-RET-G810R mutant assessed as fold change at 33.3 nM measured after 6 hrs by Western blot analysis (reference value: 1); format: functional
BaF3 [17] = assay: Inhibition of RET (unknown origin) phosphorylation in mouse BaF3 cells stably expressing KIF5B-RET-G810R mutant at 333.3 to 3000 nM measured after 6 hrs by Western blot analysis; format: cell-based; conditions: Homo sapiens, dose 333.3-3000 nM
[18] = Induction of apoptosis in mouse BaF3 cells stably expressing wildtype KIF5B-RET fusion protein assessed as late apoptotic cells at 300 nM measured after 48 hrs by Annexin V-FITC/7-AAD staining based flow cytometric analysis (reference value: 1.03 %); format: functional
[19] = Induction of apoptosis in mouse BaF3 cells stably expressing wildtype KIF5B-RET fusion protein assessed as necrotic cells at 300 nM measured after 48 hrs by Annexin V-FITC/7-AAD staining based flow cytometric analysis (reference value: 2.40 %); format: functional
[20] = Induction of apoptosis in mouse BaF3 cells stably expressing KIF5B-RET-G810C mutant assessed as late apoptotic cells at 33.3 nM measured after 48 hrs by Annexin V-FITC/7-AAD staining based flow cytometric analysis (reference value: 1.96 %); format: functional
[21] = Induction of apoptosis in mouse BaF3 cells stably expressing KIF5B-RET-G810C mutant assessed as early apoptotic cells at 100 nM measured after 48 hrs by Annexin V-FITC/7-AAD staining based flow cytometric analysis (reference value: 8.57 %); format: functional
[22] = Induction of apoptosis in mouse BaF3 cells stably expressing KIF5B-RET-G810C mutant assessed as necrotic cells at 100 nM measured after 48 hrs by Annexin V-FITC/7-AAD staining based flow cytometric analysis (reference value: 2.89 %); format: functional
[23] = Induction of apoptosis in mouse BaF3 cells stably expressing KIF5B-RET-G810C mutant assessed as viable cells at 300 nM measured after 48 hrs by Annexin V-FITC/7-AAD staining based flow cytometric analysis (reference value: 86.58 %); format: functional; conditions: read-out: Activity
[24] = Induction of apoptosis in mouse BaF3 cells stably expressing KIF5B-RET-G810C mutant assessed as early apoptotic cells at 900 nM measured after 48 hrs by Annexin V-FITC/7-AAD staining based flow cytometric analysis (reference value: 8.57 %); format: functional
[25] = Cmax in male ICR mouse at 10 mg/kg, ip measured after 24 hrs by LC-MS/MS analysis; format: ADME, organism-based; conditions: in vivo
BaF3 [26] = assay: Antitumor activity against mouse BaF3 cells stably expressing KIF5B-RET-G810C mutant implanted in male BALB/c mouse model assessed as tumor growth inhibition at 30 mg/kg, ip administered daily for 14 days relative to control; format: functional; conditions: BaF3, 336 h, time 14 day, read-out: TGI
[27] = Toxicity in male BALB/c mouse model implanted with mouse BaF3 cells stably expressing KIF5B-RET-G810C mutant assessed as body weight loss at 10 to 30 mg/kg, ip administered daily for 14 days; format: organism-based; conditions: in vivo, 336 h, dose 10-30 mg/kg, time 14 day
BaF3 [28] = assay: Antitumor activity against mouse BaF3 cells stably expressing KIF5B-RET-G810C mutant implanted in male BALB/c mouse model assessed as reduction in tumor weight at 30 mg/kg, ip administered daily for 14 days relative to control; format: functional; design: scale not given: the % may be the effect or the level left; conditions: time 14 day
[29] = system: Kinesin-1 heavy chain/ Tyrosine-protein kinase receptor RET (Homo sapiens), P07949+P33176 [G810C]; assay: In vivo PROTAC activity at CRBN/KIF5B-RET-G810C mutant in male BALB/c mouse model implanted with mouse BaF3 cells stably expressing KIF5B-RET-G810C mutant assessed as induction of RET degradation in tumor at 10 mg/kg, ip measured after 3 days by Western blotting analysis relative to control; format: functional, organism-based; conditions: time 3.0 day

COc1ccc(CN2C3CC2CN(c2ccc(-c4cc(-c5cnn(C6CCN(CCCCCC#Cc7cccc8c7CN(C7CCC(=O)NC7=O)C8=O)CC6)c5)cn5ncc(C#N)c45)cn2)C3)cn1 (centres undefined)
Activity (BaF3 [1]): 74% | Ratio IC50 [2]: ~14 | Ratio IC50 [3]: ~7 | Emax (BaF3 [4]): 83% | Activity (BaF3 [5]): 43% | IC50 (BaF3 [6]): 90 nM | IC50 (BaF3 [7]): 10 nM | IC50 (BaF3 [8]): 10 nM | Ratio IC50 [9]: 6.3 | fold change (FC) [10]: 0.5 | fold change (FC) [11]: 0.2 | fold change (FC) [12]: 1 | fold change (FC) [13]: 0.6 | fold change (FC) [14]: 0.4 | fold change (FC) [15]: 1 | fold change (FC) [16]: 0.9 | inhibition (BaF3 [17]): Active | Activity [18]: 1% | Activity [19]: 0.42% | Activity [20]: 1.62% | Activity [21]: 19.9% | Activity [22]: 2.09% | viability at 0.3 µM [23]: 63.1% | Activity [24]: 54.08% | Cmax [25]: 68 ng/mL | inhibition in vivo at 30 mg/kg (BaF3 [26]): 49.2% | Activity [27]: Non-toxic | Activity (BaF3 [28]): 34.4% | Activity [29]: 47%
